Measurements reported in PMC3519477, “Structures of the Human Poly (ADP-Ribose) Glycohydrolase Catalytic Domain Confirm Catalytic Mechanism and Explain Inhibition by ADP-HPD Derivatives” (PLoS ONE, 2012).
“And” between values parts separate entries of the source, which are not always exact repeats. Equal values may be shown once. Read-outs that look alike come from different tables or passages of the source. One block for each compound: values may come before it.

Key:
bPARG Glu756Asn mutant = system: bPARG Glu756Asn mutant; set-up: method as in supplemental 2 (Patel et al., 2005); details: ref supplemental 2 (Patel et al., 2005); cited from earlier work
bPARG Tyr796Trp mutant = system: bPARG Tyr796Trp mutant; set-up: method as in supplemental 6 (Koh et al., 2003); details: ref supplemental 6 (Koh et al., 2003); cited from earlier work
bPARG Glu728Asn mutant = details: cited from earlier work
bPARG Asp738Asn mutant = details: ref supplemental 2 (Patel et al., 2005); cited from earlier work
bPARG Glu708Asn mutant = details: ref supplemental 2 (Patel et al., 2005); cited from earlier work
wild-type bPARG = molecular target: wild-type bPARG; set-up: method as in PMID 15658938; details: SPR with immobilized 8-AH-ADP-HPD; cited from earlier work
bPARG Glu757Asn mutant = system: bPARG Glu757Asn mutant; set-up: method as in supplemental 2 (Patel et al., 2005); details: ref supplemental 2 (Patel et al., 2005); cited from earlier work
hPARG (full-length) [1] = molecular target: T1, hPARG (full-length) (Homo sapiens, UniProt Q86W56); assay: SPR binding to immobilised PARG, steady state fits; details: 25°C, steady state fit
T1 construct: direct expression of hPARG(1–976) with a C-terminal hexahistidine tag; made in house; host or cells: E. coli BL21 (DE3) GOLD
T1 sequence (Q86W56 whole entry): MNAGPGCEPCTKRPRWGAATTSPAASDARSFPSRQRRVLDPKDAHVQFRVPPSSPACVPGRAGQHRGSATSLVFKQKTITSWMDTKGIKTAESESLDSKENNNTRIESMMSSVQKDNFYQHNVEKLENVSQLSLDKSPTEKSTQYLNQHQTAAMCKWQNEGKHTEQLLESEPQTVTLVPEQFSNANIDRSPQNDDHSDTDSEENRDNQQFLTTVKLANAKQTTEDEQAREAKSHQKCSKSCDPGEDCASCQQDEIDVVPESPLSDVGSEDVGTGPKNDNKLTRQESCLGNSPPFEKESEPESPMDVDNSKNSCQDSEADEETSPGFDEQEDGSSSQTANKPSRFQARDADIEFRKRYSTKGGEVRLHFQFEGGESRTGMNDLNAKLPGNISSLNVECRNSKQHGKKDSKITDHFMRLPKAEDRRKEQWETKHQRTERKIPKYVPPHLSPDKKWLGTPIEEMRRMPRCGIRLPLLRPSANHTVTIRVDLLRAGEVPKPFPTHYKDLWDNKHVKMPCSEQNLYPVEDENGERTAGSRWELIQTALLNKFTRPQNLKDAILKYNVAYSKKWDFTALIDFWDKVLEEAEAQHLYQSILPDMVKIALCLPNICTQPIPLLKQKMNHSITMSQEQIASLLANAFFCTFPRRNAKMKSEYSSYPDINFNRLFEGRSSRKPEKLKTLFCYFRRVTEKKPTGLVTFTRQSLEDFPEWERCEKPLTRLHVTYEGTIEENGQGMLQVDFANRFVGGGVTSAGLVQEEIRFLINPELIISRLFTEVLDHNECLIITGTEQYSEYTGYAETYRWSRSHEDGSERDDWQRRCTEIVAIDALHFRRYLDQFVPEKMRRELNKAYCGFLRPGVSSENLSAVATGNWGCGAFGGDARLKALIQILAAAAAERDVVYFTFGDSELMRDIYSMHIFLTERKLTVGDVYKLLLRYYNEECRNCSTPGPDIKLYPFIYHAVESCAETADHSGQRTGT
Protocol: (§1) Biosensor (SPR) analyses were conducted using a BIAcore 3000 or BIAcore S51 instrument. Research grade CM5 chips and coupling reagents (N-ethyl-N′-dimethylaminopropylcarbodiimide, EDC; N-hydroxysuccinimide, NHS; and 1 M ethanolamine HCl, pH 8.5) were purchased from BIAcore (GE Healthcare, Northampton, MA).
(§2) A CM5 chip was docked into the instrument, primed 5 times with filtered and degassed running buffer containing 50 mM HEPES pH 7, followed by preconditioning at 100 µL/min using two consecutive aliquots of 50 µL each of 10 mM HCl, 50 mM NaOH, 0.1% (w/v) SDS, 0.085% (v/v) H3PO4. PARG surfaces were prepared by standard amine coupling via exposed amines on PARG. Immobilisations were conducted at 25°C in 50 mM HEPES at a flow rate of 5 µL/min. Flow cells were activated for 7 min by injecting a 35 µL mixture of 50 mM NHS: 200 mM EDC. Subsequently, 35 µL of 100 µg/mL PARG was injected for 7 min, followed by a 35 µL injection of ethanolamine. Typical immobilisation levels ranged from 3000 to 5000 resonance units (RU). Nonderivatised flow cells served as reference surfaces.
(§3) Studies of PARG inhibitor binding were conducted at 25°C. […] To calculate affinities, SPR equilibrium binding data, consisting of Req values from 8–10 point concentration series, were analyzed by fitting a simple 1∶1 binding model to yield Rmax and Kd values using non-linear regression analysis in Grafit 6 (Erithacus Software).

hPARG4 (hPARG(448–976)) [2] = molecular target: T2, hPARG4 (hPARG(448–976)) (Homo sapiens, UniProt Q86W56); assay: SPR binding to immobilised PARG, steady state fits; details: 25°C, steady state fit
T2 construct: a codon optimized gene encoding human PARG(448–976) was synthesized by GeneArt; 6His (TEV-cleavable) (N, cleaved yes); made in house; host or cells: E. coli BL21 (DE3) GOLD
T2 sequence (Q86W56 448-976): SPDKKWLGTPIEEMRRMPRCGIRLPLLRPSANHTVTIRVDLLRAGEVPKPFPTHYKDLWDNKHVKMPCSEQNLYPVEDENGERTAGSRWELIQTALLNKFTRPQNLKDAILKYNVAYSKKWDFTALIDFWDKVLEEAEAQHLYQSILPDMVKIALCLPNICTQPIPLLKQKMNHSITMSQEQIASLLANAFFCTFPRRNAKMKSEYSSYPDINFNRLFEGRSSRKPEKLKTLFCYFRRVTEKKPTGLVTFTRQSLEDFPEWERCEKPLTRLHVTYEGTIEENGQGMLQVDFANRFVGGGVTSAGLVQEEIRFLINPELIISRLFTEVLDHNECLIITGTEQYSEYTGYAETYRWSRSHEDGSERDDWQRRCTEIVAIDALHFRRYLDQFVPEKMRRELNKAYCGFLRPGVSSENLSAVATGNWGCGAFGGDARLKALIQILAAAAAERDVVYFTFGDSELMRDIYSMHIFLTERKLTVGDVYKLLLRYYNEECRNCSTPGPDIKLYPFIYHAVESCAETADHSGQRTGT
Protocol: as §1, §2, §3

hPARG4 (hPARG(448–976)) [3] = molecular target: T2, hPARG4 (hPARG(448–976)); assay: PARG activity HTRF assay (PAR-PARP1 hydrolysis); type: biochemical; details: 9 µL HTRF
Protocol: (§4) PARG activity was assessed using an HTRF assay which will be described in detail elsewhere (Bennett et al, manuscript in preparation). […] Following this incubation, biotinylated NAD^+ at a molar ratio to PARylated PARP1 of 0.7∶1 was added and incubation continued for 5 minutes. The reaction was terminated by addition of a PARP1-specific inhibitor to a final concentration of 4.7 µM. The solution was dialysed overnight to remove excess biotinylated NAD^+ and compound, and stored at −80°C. PARG activity was measured in a 384-well format HTRF assay using the biotin-labelled PARylated PARP1 as a substrate. Residual biotinylated PARylated PARP1 was detected by addition of a detection mix containing anti-6His–XL antibody (Cisbio) and streptavidin europium cryptate (Cisbio), and then monitoring the ratio of emission at 665 nm to 612 nm upon excitation at 340 nm.
(§5) Inhibition by ADP-HPD was measured using serial dilutions over the range 100 µM to 100 pM compound from a 1 mM stock in water. Assays contained 30 pM purified recombinant PARG and 9.67 nM PAR-PARP1 in a final volume of 9 µL assay buffer (50 mM MOPS pH 7.4, 0.1 mg/mL BSA, 3 mM EDTA, 0.4 mM EGTA, 1 mM DTT, 0.01% v/v Tween20, 50 mM KCl). […] IC50s were calculated using a time-point of 1.5 hours from the addition of detection reagents. […]

[4] = molecular target: T3, hPARG26 (hPARG(448–976 [K616A, Q617A, K618A, E688A, K689A & K690A])) (Homo sapiens, UniProt Q86W56, E688A/K616A/K618A/K689A/K690A/Q617A); assay: PARG activity HTRF assay (PAR-PARP1 hydrolysis); type: biochemical; details: 9 µL HTRF
T3 construct: a codon optimized gene encoding human PARG(448–976 [K616A, Q617A, K618A, E688A, K689A, K690A]); 6His (TEV-cleavable) (N, cleaved yes); made in house; host or cells: E. coli BL21 (DE3) GOLD (shake flasks, as for hPARG4)
T3 sequence (Q86W56 448-976 K616A/Q617A/K618A/E688A/K689A/K690A): as the sequence (Q86W56 448-976) above, with K169A, Q170A, K171A, E241A, K242A, K243A counted along it
Protocol: as §4, §5

bPARG = molecular target: bPARG; set-up: method as in PMID 7830282; details: read-out: KD, literature values for bPARG; cited from earlier work
[5] = molecular target: T4, hPARG (full-length recombinant hPARG(1–976)-6His) (Homo sapiens, UniProt Q86W56); assay: PARG activity HTRF assay (PAR-PARP1 hydrolysis); type: biochemical; details: hPARG
T4 construct: direct expression of hPARG(1–976) with a C-terminal hexahistidine tag; made in house; host or cells: E. coli BL21 (DE3) GOLD
T4 sequence (Q86W56 whole entry): as the sequence (Q86W56 whole entry) above
Protocol: as §4
Inhibition by ADP-HPD was measured using serial dilutions over the range 100 µM to 100 pM compound from a 1 mM stock in water. Assays contained 30 pM purified recombinant PARG and 9.67 nM PAR-PARP1 in a final volume of 9 µL assay buffer (50 mM MOPS pH 7.4, 0.1 mg/mL BSA, 3 mM EDTA, 0.4 mM EGTA, 1 mM DTT, 0.01% v/v Tween20, 50 mM KCl). Reactions were allowed to proceed for 8 minutes prior to the addition of 3 µL detection reagents (50 mM MOPS pH 7.4, 0.1 mg/mL BSA, 0.1 M Potassium Fluoride, 14 nM anti-6HIS-XL antibody, 0.75 nM Streptavidin Europium Cryptate). IC50s were calculated using a time-point of 1.5 hours from the addition of detection reagents.
Here, 17.5 nL of ADP-HPD ([…]) or OA-ADP-HPD (21.43 mM in DMSO) were dispensed by an ECHO555 (Labcyte Inc.) into Greiner white 1536-well plates over the specified range: ADP-HPD (100 µM to 100 pM) and OA-ADP-HPD (500 µM to 30 nM).
ADP-HPD and OA-ADP-HPD inhibition data were visualised in Prism (GraphPad), and IC50s derived from a non-linear regression analysis of the values from three separate experiments (run in triplicate) fit to a sigmoidal dose-response curve.

[6] = system: bovine PARG (bPARG), purified full-length protein; set-up: method as in PMID 13678410; details: read-out: IC50, literature value; cited from earlier work
[7] = system: bovine PARG (bPARG), recombinant catalytic domain; set-up: method as in PMID 13678410; details: recombinant catalytic domain of bPARG; read-out: IC50, literature value; cited from earlier work
hPARG (full-length) [8] = molecular target: T1, hPARG (full-length); assay: Isothermal titration calorimetry; type: binding; details: 25°C
Protocol: (§6) This was carried out using an iTC200 instrument (Microcal, GE Healthcare, Northampton, MA) at 25°C in the following buffer: 20 mM HEPES pH 7, 150 mM NaCl, 2 mM DTT, 0.02% NaN3. Protein concentrations were typically 30 µM in the cell with ligand concentrations of at least 10 fold this concentration in the syringe. Typical injection protocols of 19×2 µL injections, spaced at 2 or 3 minute intervals were used. Curves were fitted by non-linear regression analysis using a one-site binding model provided by MicroCal Origin software (version 7).

hPARG4 (hPARG(448–976)) [9] = molecular target: T2, hPARG4 (hPARG(448–976)); assay: Isothermal titration calorimetry; type: binding; details: 25°C
Protocol: as §6

Compound: 8-aminohexylaminoADP-HPD [8-AH-ADP-HPD]
- increase in affinity versus wild-type (bPARG Glu756Asn mutant): No detectable activity; 8-fold increase in 8-AH-ADP-HPD affinity
- effect of mutation on binding (bPARG Tyr796Trp mutant): Limited effect on catalytic activity and 8-AH-ADP-HPD binding
- Kd (bPARG Glu728Asn mutant; bPARG Glu728Asn (E727N in hPARG), SPR with immobilized 8-AH-ADP-HPD): 3.2 nM
- increase in affinity versus wild-type (bPARG Glu728Asn mutant; bPARG Glu728Asn, ref supplemental 2 (Patel et al., 2005)): 18% wild-type specific activity; 2.5-fold increase in affinity for 8-AH-ADP-HPD
- decrease in affinity versus wild-type (bPARG Asp738Asn mutant): No detectable activity; 1.4-fold decrease in affinity for 8-AH-ADP-HPD
- increase in affinity versus wild-type (bPARG Glu708Asn mutant): No effect on catalytic activity; 2.5-fold increase in affinity for 8-AH-ADP-HPD
- Kd (wild-type bPARG): 8.2 nM
- effect of mutation on affinity (bPARG Glu757Asn mutant): No detectable activity; no effect on 8-AH-ADP-HPD affinity

- Kd (hPARG (full-length) [1]): 44.8 ± 2.9 nM
- Kd (hPARG4 (hPARG(448–976)) [2]): 64.3 ± 2.6 nM
- IC50 (hPARG4 (hPARG(448–976)) [3]): 970 ± 240 nM
- IC50 [4]: 1100 ± 220 nM
- IC50 ([5]; 384-well HTRF, 9 µL, 30 pM PARG, 9.67 nM PAR-PARP1, 8 min reaction, read-out: IC50): 3 µM and 3.1 µM
- IC50 ([5]; conditions of the High Throughput Screening campaign, read-out: IC50 under HTS campaign conditions): ~0.6 µM
- Kd (hPARG (full-length) [8]; values heavily influenced by base-line noise (Figure S2), read-out: KD (ITC)): 416 ± 89.9 nM
- ΔG (hPARG (full-length) [8]; ITC): -36.4 ± 0.5 kJ/mol
- ΔH (hPARG (full-length) [8]; ITC): -30.8 ± 0.04 kJ/mol
- ΔS (hPARG (full-length) [8]; ITC): +18.8±1.7 J/mol/K
- Kd (hPARG4 (hPARG(448–976)) [9]; read-out: KD (ITC)): 132 ± 14 nM
- ΔG (hPARG4 (hPARG(448–976)) [9]; ITC): -39.4 ± 0.3 kJ/mol
- ΔH (hPARG4 (hPARG(448–976)) [9]; ITC): -56.1 ± 0.4 kJ/mol
- ΔS (hPARG4 (hPARG(448–976)) [9]; ITC): −56.1±0.5 J/mol/K
Compound: Nc1ncnc2c1ncn2C1OC(COP(=O)(O)OP(=O)(O)OCC2NCC(O)C2O)C(O)C1O (stereo not shown) [ADP-HPD, adenosine 5′-diphosphate (hydroxymethyl)pyrrolidinediol]
- Kd (bPARG): 50 to 80 nM
- IC50 [6]: 330 nM
- IC50 [7]: 1000 to 1400 nM
